In brackets after ≈: the same amount, converted by molar mass. Like-named read-outs stand apart in the source and are kept apart here.
Key:
[1] = test system: drug-resistant A. baumannii strains obtained from the CDC and Prevention Antimicrobial Isolate Bank; experiment: MIC on drug-resistant A. baumannii strains from the CDC Antimicrobial Isolate Bank; type: cell-based; conditions: Acinetobacter baumannii
A. baumannii ATCC 15151 [2] = experiment: MIC on A. baumannii ATCC 15151; type: cell-based; conditions: Acinetobacter baumannii, ATCC15151; A. baumannii ATCC 15151 (heading of Example 9)
A. baumannii ATCC 15151 [3] = experiment: microbe, parasite or virus in culture; type: cell-based; conditions: for change of MIC from Day 0 to Day 30 / development of resistance: 30 days; for MIC: Acinetobacter baumannii; for Evolution of resistance?: Table 7
Protocol: A. baumannii ATCC 15151 was grown from a glycerol stock by placing a small volume of cells onto a MHA plate. The MHA plate was incubated overnight at 37° C. A single colony was subsequently used to inoculate MHB to obtain a bacterial broth suspension. The MHB broth suspension was grown at 37° C. on a rotary shaking incubator (100 rpm) for 12 hours. The bacterial cell concentration was adjusted to ˜5×10^5 CFU/mL in MHB or MHB using OD at 595 nm. […] (PAO) and the negative control was non-treated cells. All treatments were performed in triplicate. The plate was incubated for 20 hours at 37° C. in a Tecan plate reader, where the cells were shaken every hour and an OD reading was taken at 600 nm. […] These cells were again plated in a 96-well plate and incubated as before. This was performed a total of 30 days.

E. coli pNMT41 = experiment: 6-chloro-4-methyl-umbelliferyl-β-D-glucuronide assay for beta-glucuronidase (inner membrane disruption); type: cell-based; conditions: 10 μg/mL PME
Protocol: E. coli pNMT 41 was grown from a glycerol stock by placing a small volume of cells onto a MHA plate. The MHA plate was incubated overnight at 37° C. A single colony was subsequently used to inoculate MHB+100 μg/mL ampicillin to obtain a bacterial broth suspension. The MHB broth suspension was grown at 37° C. on a rotary shaking incubator (100 rpm) for 12 hours. The bacterial cell concentration was adjusted to ˜1×10^7 CFU/mL in MHB using OD at 595 nm. The cells were washed 3× by spinning by centrifuge and washing with 500 μL medium 200. The cells were resuspended in 7 mL medium 200. The cells were treated with 10 μM melittin, 6, 12, 24, and 100 μM Compound 25, and 10 μg/mL PME. The cells were incubated at 37° C. for 30 minutes. 1 μM umbelliferyl was added, and the cells were incubated further for 10 minutes at 37° C.
The cells were then incubated at 37° C. for 45 minutes. 1 μM umbelliferyl was added, and the cells were incubated further for 10 minutes at 37° C.

red blood cells = experiment: Red blood cell lysis capacity; type: cell-based
Protocol: Diluted red blood cells were aliquoted into clear tissue culture media−/+addition of 40% human serum and added either 2 μL or 40 μL of cell lysis buffer (LB), 50 μM, 40 μM, 20 μM, 15 μM, 10 μM, or 5 μM Compound 14. The samples were agitated by vortex and spun by centrifuge.

MRSA ATCC BAA-44 = experiment: MIC on MRSA ATCC BAA-44; type: cell-based, S. aureus; conditions: for MIC: Staphylococcus aureus
Protocol: MRSA BAA-44: MRSA ATCC BAA-44 was grown from a glycerol stock by placing a small volume of cells onto a Mueller-Hinton agar plate (MHA). The MHA plate was incubated overnight at 37° C. A single colony was used to inoculate Mueller-Hinton broth (MHB) to obtain a bacterial broth suspension. The MHB broth suspension was grown at 37° C. on a rotary shaking incubator (100 rpm) for 12 hours. The bacterial cell concentration was adjusted to ˜5×10^5 colony forming units per milliliter (CFU/mL) in MHB−/+10, 20, or 40% FBS using optical density (OD) at 595 nm. 500 μL aliquots of the adjusted bacterial cell suspension were placed into borosilicate glass tubes. The cell suspensions were treated with 100 μM compound of interest and serially diluted two-fold. The culture tubes were incubated for 18 hours at 37° C. Efficacy was either assessed visually or by adding 10% v/v MTT (5 mg/mL stock) after the 18 hour incubation period, where the cell suspensions were subsequently incubated for 10 minutes to allow the MTT reagent to carry out the colorimetric reaction.

A. baumannii ATCC 15151 [4] = experiment: DNA degradation (agarose gel), drug-sensitive strain; type: cell-based; conditions: 1.5% H2O2, 10 μg/mL ciprofloxacin, 100 μM Compound 25; 3 hours
[5] = test system: A. baumannii ATCC BAA-1797 in a culture of HeLa cells; experiment: Selective killing of A. baumannii in a culture of HeLa cells; type: cell-based; conditions: 60 μM Compound 26
Protocol: In a separate experiment, the ability of […] to selectively kill A. baumannii ATCC BAA-1797 in a culture of HeLa cells in 40% FBS was studied. Cells were trypsinized, counted (cells/mL) using a hemocytometer, and plated (2×10^5 HeLa cells/100 μL) in tissue culture-treated 24-well plate in DMEM+1% penicillin/streptomycin (P/S)+10% FBS. Cells were adhered overnight at 37° C. in a humidified incubator with 5% CO2. Media was replaced the following day with DMEM+40% or 50% FBS. Selected wells were treated with 60 μM Compound 26, which included HeLa only and HeLa plus 10,000 A. baumannii ATCC BAA-1797—that had been previously grown in MHB for 12 hours in 37° C.—in the appropriate wells. Cells were incubated further for 18 hours at 37° C. 20% v/v MTT reagent (5 mg/mL stock) was added, and the samples were incubated for 10 minutes to observe viable bacteria. Plates were counted after a visual viability assessment.
Cells were trypsinized, counted (cells/mL) using a hemocytometer, and plated (2×10^5 HeLa cells/100 μL) in tissue culture-treated 24-well plate in DMEM+1% penicillin/streptomycin (P/S)+10% FBS. Cells were adhered overnight at 37° C. in a humidified incubator with 5% CO2. Media was replaced the following day with DMEM+40% or 50% FBS. […] Plates were counted after visual viability assessment.

[6] = 18 h, A. baumannii CDC AR033, 18 hours, read-out: MIC values for AR033
[7] = ATCC15151, 0 h, read-out: Starting MIC Day 0, A. baumannii ATCC 15151, Day 0
[8] = ATCC15151, read-out: Final MIC Day 30, A. baumannii ATCC 15151, Day 30
[9] = 18 h, read-out: MIC in the presence of 40% FBS, MRSA ATCC BAA-44, 40% FBS
[10] = MRSA ATCC BAA-44, absence of serum, read-out: MIC in the absence of serum
[11] = MRSA ATCC BAA-44, serum not stated, read-out: MIC
[12] = 18 h, A. baumannii CDC AR083, 18 hours, read-out: MIC values for AR083
[13] = no serum (note in the cell), read-out: MIC (μM) in MRSA BAA-44

Nc1cccc2[nH]cc(/C=N/Nc3ccc(Cl)cc3)c12 [Compound 14, (E)-3-((2-(4-chlorophenyl)hydrazineylidene)methyl)-1H-indol-4-amine]
MIC [1, 6]: 25 µM (≈ 7.12 µg/mL) | MIC ([1]; 18 h, read-out: MIC values for AR083): 12.5 µM (≈ 3.56 µg/mL) | MIC (A. baumannii ATCC 15151 [2]): 6 µM (≈ 1.71 µg/mL) | change of MIC from Day 0 to Day 30 (A. baumannii ATCC 15151 [3]): 8 fold | development of resistance (A. baumannii ATCC 15151 [3]): significant resistance | MIC (A. baumannii ATCC 15151 [3]; [7]): 12.5 µM (≈ 3.56 µg/mL) | MIC (A. baumannii ATCC 15151 [3]; [8]): ≥ 100 µM | Evolution of resistance? (A. baumannii ATCC 15151 [3]): Yes; >6-fold | inner membrane disruption (GUS fluorescence) (E. coli pNMT41; separate experiment, 12.5 μM Compound 14, 45 minutes): did not disrupt inner membrane | red blood cell lysis (red blood cells; 40% additional human serum, 50 μM Compound 14): did not lyse cells | red blood cell lysis (red blood cells; no additional serum, 40 μM Compound 14): lysed some red blood cells | MIC (MRSA ATCC BAA-44; [9]): 100 µM | MIC (MRSA ATCC BAA-44; [10]): 50 µM (≈ 14.2 µg/mL) | MIC (MRSA ATCC BAA-44; [11]): 50 to 100 µM (≈ 14.2 to 28.5 µg/mL) | toxicity to MRSA BAA-44 (MRSA ATCC BAA-44; absence of serum): toxic

Clc1ccc(N/N=C/c2c[nH]c3ccc(Br)cc23)cc1 [Compound 15, (E)-5-bromo-3-((2-(4-chlorophenyl)hydrazineylidene)methyl)-1H-indole]
MIC [1, 6]: 25 µM (≈ 8.72 µg/mL) | MIC [1, 12]: 12.5 µM (≈ 4.36 µg/mL) | MIC (A. baumannii ATCC 15151 [2]): 12.5 µM (≈ 4.36 µg/mL) | Evolution of resistance? (A. baumannii ATCC 15151 [3]): Yes; >4-fold | MIC (MRSA ATCC BAA-44; [9]): > 100 µM | MIC (MRSA ATCC BAA-44; [10]): 50 µM (≈ 17.4 µg/mL)

Brc1ccc(N/N=C/c2c[nH]c3cccc(OCc4ccccc4)c23)cc1.Cl [Compound 25, (E)-2-((4-(benzyloxy)-1H-indol-3-yl)methylene)-1-(4-bromophenyl)hydrazin-1-ium chloride]
DNA degradation (A. baumannii ATCC 15151 [4]): did not degrade DNA | MIC [1, 6]: 6 µM | MIC [1, 12]: < 3 µM | MIC ([1]; AR bank # 33, SAMN04014874, read-out: Compound 25 MIC): 6 µM | MIC ([1]; AR bank # 35, SAMN04014876, read-out: Compound 25 MIC): 12.5 µM | MIC ([1]; AR bank # 36, SAMN04014877, read-out: Compound 25 MIC): 12.5 µM | MIC ([1]; AR bank # 37, SAMN04014878, read-out: Compound 25 MIC): 6 µM | MIC ([1]; AR bank # 45, SAMN04014886, read-out: Compound 25 MIC): 6 µM | MIC ([1]; AR bank # 52, SAMN04014893, read-out: Compound 25 MIC): 6 µM | MIC ([1]; AR bank # 56, SAMN04014897, read-out: Compound 25 MIC): 3 µM | MIC ([1]; AR bank # 63, SAMN04014904, read-out: Compound 25 MIC): 3 µM | MIC ([1]; AR bank # 70, SAMN04014911, read-out: Compound 25 MIC): 3 µM | MIC ([1]; AR bank # 78, SAMN04014919, read-out: Compound 25 MIC): 6 µM | MIC ([1]; AR bank # 83, SAMN04014924, read-out: Compound 25 MIC): 3 µM | MIC ([1]; AR bank # 88, SAMN04014929, read-out: Compound 25 MIC): 6 µM | MIC ([1]; AR bank # 101, SAMN04014942, read-out: Compound 25 MIC): 6 µM | MIC ([1]; AR bank # 102, SAMN04014943, read-out: Compound 25 MIC): 6 µM | MIC (A. baumannii ATCC 15151 [2]): 3 µM | development of resistance (A. baumannii ATCC 15151 [3]): had not developed resistance | MIC (A. baumannii ATCC 15151 [3]; [7]): 6 µM | MIC (A. baumannii ATCC 15151 [3]; [8]): 6 µM | Evolution of resistance? (A. baumannii ATCC 15151 [3]): No | inner membrane disruption (GUS fluorescence) (E. coli pNMT41; 10 μM melittin, 6, 12, 24, 100 μM Compound 25, 30 minutes): did not disrupt the inner membrane | MIC (MRSA ATCC BAA-44; [11]): 25 µM | MIC (MRSA ATCC BAA-44; [13]): 50 µM

Cl.Clc1ccc(N/N=C/c2c[nH]c3cccc(OCc4ccccc4)c23)cc1 [Compound 26, (E)-2-((4-(benzyloxy)-1H-indol-3-yl)methylene)-1-(4-chlorophenyl)hydrazin-1-ium]
MIC [1, 6]: 6 µM | MIC [1, 12]: 6 µM | MIC (A. baumannii ATCC 15151 [2]): 3 µM | change of MIC from Day 0 to Day 30 (A. baumannii ATCC 15151 [3]): 2 fold | development of resistance (A. baumannii ATCC 15151 [3]): slight resistance | MIC (A. baumannii ATCC 15151 [3]; [7]): 6 µM | MIC (A. baumannii ATCC 15151 [3]; [8]): 12 µM | Evolution of resistance? (A. baumannii ATCC 15151 [3]): Yes; 2-fold | MIC (MRSA ATCC BAA-44; [11]): 25 µM | MIC (MRSA ATCC BAA-44; [13]): 50 µM | kill of A. baumannii ATCC BAA-1797 in HeLa co-culture ([5]; 40% FBS and 50% FBS): 4 logs | selective eradication of A. baumannii from HeLa cells ([5]; 18 hours, 40% or 50% FBS): selectively eradicated A. baumannii ATCC BAA-1797 from HeLa cells, leaving HeLa cells unharmed

Cl.Fc1ccc(N/N=C/c2c[nH]c3cccc(OCc4ccccc4)c23)cc1 [Compound 27, (E)-2-((4-(benzyloxy)-1H-indol-3-yl)methylene)-1-(4-fluorophenyl)hydrazin-1-ium]
MIC [1, 6]: 25 µM | MIC [1, 12]: 12.5 µM | MIC (A. baumannii ATCC 15151 [2]): 12.5 µM | Evolution of resistance? (A. baumannii ATCC 15151 [3]): Yes; 4-fold | MIC (MRSA ATCC BAA-44; [11]): 100 µM | MIC (MRSA ATCC BAA-44; [13]): 100 µM
